Reference: patent US9126976B2 (Merck Sharp & Dohme Corp., priority 2011, dated 2015)
Like-named read-outs stand apart in the source and are kept apart here.

Target: CETP (Homo sapiens (Human), UniProt P11597)
Experiment: Scintillation Proximity Assay (SPA) for CETP activity
Type: biochemical
Description: Protocol: Scintillation Proximity Assay (SPA) for CETP Activity
First, low density lipoprotein (LDL) (Meridian) was biotinylated by incubating LDL with biotin for 1 hour on ice, after which it was dialyzed to remove free biotin. Then compounds at varying concentrations were incubated with 15 nM CETP (reagent production group, In Vitro Pharmacology, MRL Rahway) and 50 ug/ml of the biotinylated LDL in 50 mM HEPES, 150 mM NaCl, pH 7.4, for 1 hour at 37° C. The reaction was started by adding 3H-cholesterol ester high density lipoprotein (HDL) (American Radiochemicals Corp) at a concentration of ˜0.6 nM. The reaction proceeded for 2 hours at 37° C., after which time it was quenched by the addition of 12% acetic acid. PVT streptavadin-coated scintillation proximity beads, which had been brought to room temperature, were then added at a concentration of 4 mg/ml. The assay was then mixed and counted after one half hour in a Microbeta plate reader.

Sequence of CETP (P11597 18-493): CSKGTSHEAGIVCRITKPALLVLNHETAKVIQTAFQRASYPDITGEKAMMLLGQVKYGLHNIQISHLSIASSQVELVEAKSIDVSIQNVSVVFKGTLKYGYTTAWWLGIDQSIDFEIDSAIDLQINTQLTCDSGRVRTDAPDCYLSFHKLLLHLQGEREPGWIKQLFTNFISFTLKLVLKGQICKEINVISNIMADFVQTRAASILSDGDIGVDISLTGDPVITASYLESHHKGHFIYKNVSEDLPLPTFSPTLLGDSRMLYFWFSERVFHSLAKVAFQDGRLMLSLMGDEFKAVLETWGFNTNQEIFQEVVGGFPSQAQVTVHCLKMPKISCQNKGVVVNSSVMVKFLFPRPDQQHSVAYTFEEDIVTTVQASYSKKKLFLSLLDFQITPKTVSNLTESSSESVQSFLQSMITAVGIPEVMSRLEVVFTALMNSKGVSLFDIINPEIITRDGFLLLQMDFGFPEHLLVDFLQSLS

Compound | IC50 (Table 1, read-out: IC50) | IC50 (read-out: SPA IC50) | also measured
O[C@H](CN1c2ccccc2N(C2C=Cc3ccccc32)CC1c1cccc(OC(F)(F)C(F)F)c1)C(F)(F)F (stereo partly drawn) [Example 56, (2R)-3(4-(1H-inden-1-yl))-2-(3-(1,1,2,2,- tetrafluoroethoxy)phenyl)-3,4-dihydroquinoxalin-1(2H)-yl-1,1,1-trifluoropropan-2-ol] | 11 nM | – | –
Cc1ccccc1CN1C[C@@H](c2cccc(C(F)(F)F)c2)N(C[C@@H](O)C(F)(F)F)c2ccccc21 [Example 33, (R)-3-((R)-4-(2-methylbenzyl)-2-(3-(trifluoromethyl)phenyl)-3,4-dihydroquinoxalin-1(2H)-yl)-1,1,1-trifluoro propan-2-ol] | 428 nM | – | –
O[C@H](CN1c2ccccc2N(Cc2cccc(OC(F)(F)F)c2)CC1c1cccc(-c2ccccc2)c1)C(F)(F)F (stereo partly shown) [Example 69] | – | – | IC50 (Table 2, read-out: IC50 SPA): 163 nM
O[C@H](CN1c2ccccc2N(Cc2ncccc2N2CCOCC2)C[C@H]1c1cccc(C(F)(F)F)c1)C(F)(F)F [Example 63] | – | – | IC50 (Table 2, read-out: IC50 SPA): 1570 nM
O[C@H](CN1c2ccccc2N(Cc2cc(Cl)cc(Cl)c2)C[C@H]1c1ccccc1)C(F)(F)F [Example 31, (R)-3-((R)-4-(3,5-dichlorobenzyl)-2-phenyl-3,4-dihydroquinoxalin-1(2H)-yl)-1,1,1-trifluoropropan-2-ol] | 2760 nM | – | –
O[C@H](CN1c2ccccc2N(Cc2cc(Cl)cc(Cl)c2)C[C@H]1c1cccc(C(F)(F)F)c1)C(F)(F)F [Example 32, (R)-3-((R)-4-(3,5-dichlorobenzyl)-2-(3-(trifluoromethyl)phenyl)-3,4-dihydroquinoxalin-1(2H)-yl)-1,1,1-trifluoro propan-2-ol] | 12 nM | – | –
O[C@H](CN1c2ccccc2N(Cc2cccc(Cl)c2)C[C@H]1c1ccccc1)C(F)(F)F [Example 30, (R)-3-((R)-4-(3-chlorobenzyl)-2-phenyl-3,4-dihydroquinoxalin-1(2H)-yl)-1,1,1-trifluoropropan-2-ol] | 1400 nM | – | –
N#Cc1cccc([C@@H]2CN(Cc3cccc(OC(F)(F)F)c3)c3ccccc3N2C[C@@H](O)C(F)(F)F)c1 [Example 24] | – | 98 nM | –
O[C@H](CN1c2ccccc2N(Cc2cccc(OC(F)(F)F)c2)C[C@H]1c1ccc(Cl)cc1)C(F)(F)F [Example 49] | 20 nM | – | –
O[C@H](CN1c2ccccc2N(CC2CCCCC2)C[C@H]1c1cccc(C(F)(F)F)c1)C(F)(F)F [Example 37, (R)-3-((R)-4-(cyclohexylmethyl)-2-(3-(trifluoromethyl)phenyl)-3,4-dihydroquinoxalin-1(2H)-yl)-1,1,1-trifluoro propan-2-ol] | 1270 nM | – | –
Cc1cccc(CN2C[C@@H](c3cccc(C(F)(F)F)c3)N(C[C@@H](O)C(F)(F)F)c3ccccc32)n1 [Example 44] | 460 nM | – | –
O[C@H](CN1c2ccccc2N(Cc2cccc(OC(F)(F)F)c2)C[C@H]1c1ccc2c(c1)OCCO2)C(F)(F)F [Example 51] | 209 nM | – | –
O[C@H](CN1c2ccccc2N(CC2CCOCC2)C[C@H]1c1cccc(OC(F)(F)F)c1)C(F)(F)F [Example 67] | – | – | IC50 (Table 2, read-out: IC50 SPA): 29 nM
O[C@H](CN1c2ccccc2N(CC2=CCCCC2)C[C@H]1c1cccc(OC(F)(F)F)c1)C(F)(F)F [Example 66] | – | – | IC50 (Table 2, read-out: IC50 SPA): 8 nM
O[C@H](CN1c2ccccc2N(Cc2cc(F)cc(C(F)(F)F)c2)C[C@H]1c1cccc(C(F)(F)F)c1)C(F)(F)F [Example 41, (2R)-1,1,1-trifluoro-3-(4-(3-fluoro-5-(trifluoromethyl)benzyl)-2-(3-(trifluoromethyl)phenyl)-3,4-dihydroquinoxalin-1(2H)-yl)propan-2-ol] | 45.2 nM | – | –
COc1cc2ccc([C@@H]3CN(Cc4cccc(OC(F)(F)F)c4)c4ccccc4N3C[C@@H](O)C(F)(F)F)cc2cc1OC [Example 50] | 193 nM | – | –

Compound | IC50 (Table 1, read-out: IC50) | IC50 (read-out: SPA IC50) | also measured
O[C@H](CN1c2ccccc2N(Cc2cccc(OC(F)F)c2)C[C@H]1c1cccc(C(F)(F)F)c1)C(F)(F)F [Example 64] | – | – | IC50 (Table 2, read-out: IC50 SPA): 16 nM
O[C@H](CN1c2ccccc2N(Cc2cccc(OC(F)(F)F)c2)C[C@H]1c1ccc(C(F)(F)F)cc1)C(F)(F)F [Example 11] | – | 4 nM | –
O[C@H](CN1c2ccccc2N(Cc2cccc(OC(F)(F)F)c2)C[C@H]1c1cccc(OC(F)(F)C(F)F)c1)C(F)(F)F [Example 18] | – | 15 nM | –
COc1cccc([C@@H]2CN(Cc3cccc(OC(F)(F)F)c3)c3ccccc3N2C[C@@H](O)C(F)(F)F)c1 [Example 20] | – | 78 nM | –
O[C@H](CN1c2ccccc2N(Cc2cccc(OC(F)(F)F)c2)C[C@H]1c1cccnc1)C(F)(F)F [Example 22] | – | 258 nM | –
O[C@H](CN1c2ccccc2N(Cc2ccnc(N3CCOCC3)c2)C[C@H]1c1cccc(C(F)(F)F)c1)C(F)(F)F [Example 62] | – | – | IC50 (Table 2, read-out: IC50 SPA): 326 nM
O[C@H](CN1c2ccccc2N(Cc2cccc(OC(F)(F)F)c2)C[C@H]1c1cccc(OC(F)(F)F)c1)C(F)(F)F [Example 21] | – | 19 nM | –
CS(=O)(=O)c1ccc([C@@H]2CN(Cc3cccc(OC(F)(F)F)c3)c3ccccc3N2C[C@@H](O)C(F)(F)F)cc1 [Example 23] | – | 96 nM | –
CCc1cc(CN2C[C@@H](c3cccc(C(F)(F)F)c3)N(C[C@@H](O)C(F)(F)F)c3ccccc32)ccc1Cl [Example 42, (2R)-3-(4-(4-chloro-3-ethylbenzyl)-2-(3-(trifluoromethyl)phenyl)-3,4-dihydroquinoxalin-1(2H)-yl)-1,1,1-trifluoropropan-2-ol] | 45.1 nM | – | –
O[C@H](CN1c2ccccc2N(Cc2cccc(OC(F)(F)F)c2)CC1c1ccc(-c2ccccc2)cc1)C(F)(F)F (stereo partly shown) [Example 68] | – | – | IC50 (Table 2, read-out: IC50 SPA): 25 nM
C[C@@H](c1ccccc1)N1C[C@@H](c2cccc(C(F)(F)F)c2)N(C[C@@H](O)C(F)(F)F)c2ccccc21 [Example 14] | – | 1460 nM | –
O[C@H](CN1c2ccccc2N(Cc2cccc(OC(F)(F)F)c2)C[C@H]1c1cccc(C(F)(F)F)c1)C(F)(F)F [Example 10] | – | 9 nM | –
O[C@H](CN1c2ccccc2N(C2CCCc3ccccc32)CC1c1cccc(C(F)(F)F)c1)C(F)(F)F (stereo partly drawn) [Example 57, (2R)-1,1,1-trifluoro-3(4-(1,2,3,4-tetrahydronaphthalen-1-yl)-2-(3-trifluoromethyl)phenyl)-3,4-dihydroquinoxalin-1(2H)-yl-propan-2-ol] | 12 nM | – | –
O[C@H](CN1c2c(ccc(F)c2F)N(Cc2cccc(OC(F)(F)F)c2)CC1c1cccc(C(F)(F)F)c1)C(F)(F)F (stereo partly shown) [Example 65] | – | – | IC50 (Table 2, read-out: IC50 SPA): 157 nM
O[C@H](CN1c2ccccc2N(Cc2ccc(Cl)cc2)C[C@H]1c1cccc(C(F)(F)F)c1)C(F)(F)F [Example 39, (2R)-3-(4-(4-chlorobenzyl)-2-(3-(trifluoromethyl)phenyl)-3,4-dihydroquinoxalin-1(2H)-yl)-1,1,1-trifluoropropan-2-ol] | 548 nM | – | –

More lines, main results first:

IC50 (Table 1, read-out: IC50) | IC50 (read-out: SPA IC50) | Compound | also measured
– | 27 nM | COC(=O)c1cccc([C@@H]2CN(Cc3cccc(OC(F)(F)F)c3)c3ccccc3N2C[C@@H](O)C(F)(F)F)c1 [Example 16] | –
– | 770 nM | O[C@H](CN1c2ccccc2N(Cc2cccc(OC(F)(F)F)c2)C[C@H]1c1cc(C(F)(F)F)cc(C(F)(F)F)c1)C(F)(F)F [Example 25] | –
– | 90 nM | CNC(=O)c1cccc(C2CN(Cc3cccc(OC(F)(F)F)c3)c3ccccc3N2C[C@@H](O)C(F)(F)F)c1 (stereo partly drawn) [Example 19, N-methyl-3-{1-[(R)-3,3,3-trifluoro-2-hydroxypropyl]-4-[3-(trifluoro-methoxy)benzyl]-1,2,3,4-tetrahydroquinoxalin-2-yl}benzamide] | –
– | 390 nM | Cc1cc([C@@H]2CN(Cc3cccc(OC(F)(F)F)c3)c3ccccc3N2C[C@@H](O)C(F)(F)F)n(C)n1 [Example 28] | –
– | 28 nM | C[C@@H](c1cccc(C(F)(F)F)c1)N1C[C@@H](c2cccc(C(F)(F)F)c2)N(C[C@@H](O)C(F)(F)F)c2ccccc21 [Example 12] | –
– | 10 nM | C[C@H](c1cccc(C(F)(F)F)c1)N1C[C@@H](c2cccc(C(F)(F)F)c2)N(C[C@@H](O)C(F)(F)F)c2ccccc21 [Example 13, (R)-1,1,1-trifluoro-3-((R)-2-(3-(trifluoromethyl)phenyl-4-((R)-1-(3-trifluoromethyl)phenyl)ethyl)-3,4-dihydroquinoxalin-1(2H)-yl)propan-2-ol] | –
270 nM | – | Cc1ccc(C(F)(F)F)cc1CN1C[C@@H](c2cccc(C(F)(F)F)c2)N(C[C@@H](O)C(F)(F)F)c2ccccc21 [Example 43, (2R)-1,1,1-trifluoro-3-(4-(2-methyl-5-(trifluoromethyl)benzyl)-2-(3-(trifluoromethyl)phenyl)-3,4-dihydroquinoxalin-1(2H)-yl)propan-2-ol] | –
682 nM | – | O[C@H](CN1c2ccccc2N(Cc2cccc(OC(F)(F)F)c2)C[C@H]1c1ccc(F)cc1)C(F)(F)F [Example 52] | –
– | 30 nM | CN(C)c1ncc([C@@H]2CN(Cc3cccc(OC(F)(F)F)c3)c3ccccc3N2C[C@@H](O)C(F)(F)F)cn1 [Example 27] | –
169 nM | – | O[C@H](CN1c2ccccc2N(Cc2cccc(Cl)c2Cl)C[C@H]1c1cccc(C(F)(F)F)c1)C(F)(F)F [Example 34, (R)-3-((R)-4-(2,3-dichlorobenzyl)-2-(3-(trifluoromethyl)phenyl)-3,4-dihydroquinoxalin-1(2H)-yl)-1,1,1-trifluoro propan-2-ol] | –
1160 nM | – | O[C@H](CN1c2ccccc2N(Cc2c(Cl)cccc2Cl)C[C@H]1c1cccc(C(F)(F)F)c1)C(F)(F)F [Example 35, (R)-3-((R)-4-(2,6-dichlorobenzyl)-2-(3-(trifluoromethyl)phenyl)-3,4-dihydroquinoxalin-1(2H)-yl)-1,1,1-trifluoro propan-2-ol] | –
461 nM | – | O[C@H](CN1c2ccccc2N(Cc2ccsc2)C[C@H]1c1cccc(C(F)(F)F)c1)C(F)(F)F [Example 38, (R)-3-((R)-4-(thiophenyl-3-ylmethyl)-2-(3-(trifluoromethyl)phenyl)3,4-dihydroquinoxalin-1(2H)-yl)-1,1,1-trifluoropropan-2-ol] | –
